Laboratory results from patent publication US9629887B1, “Control of acid reflux with botanicals” (Biotics Research Corporation, priority 2014, dated 2017).
Where a name gives a salt, the structure may show the parent alone.

System: patients with acid reflux / GI tract symptoms
Assay: Case histories of patients treated with HCl-Ease capsules
Type: in vivo, human
Details: previous treatment prescribed elsewhere, patient history
Excerpt: The invention is further illustrated by the following case histories, in which the inventive capsules as described above as the specific embodiment are referred to as HCl-Ease.

COc1ccc2[nH]c([S+]([O-])Cc3ncc(C)c(OC)c3C)nc2c1 (centres unmarked) [Prilosec]
outcome of other treatment as stated by patient: didn't help much

C[N+](C)(C)CC(=O)O [Betaine HCL]
outcome of other treatment as stated by patient: greatly increased their symptoms
